Laboratory results taken from patent publication US12281122B1, “PI3K inhibitors” (Cogent Biosciences, Inc., priority 2023, dated 2025).

What was measured:
[1] = target: PI3Kα (Homo sapiens, UniProt P42336); test: PI3Kα enzyme assay (Transcreener ADP2 TR-FRET Red Assay); type: biochemical; settings: purified recombinant full-length protein; 2 hours pre-incubation with compound; read-out: PI3Kα WT IC50
Method in brief: (§1)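 Purified recombinant full-length enzymes pre-incubated 2 h at room temperature with compounds (11-point 1:3 dilutions, typically 50,000–0.85 nM), then started with ATP/PI(4,5)P2 diC8 and run 60 min at room temperature in 40 mM HEPES pH 7.5, 20 mM NaCl, 25 mM MgCl2, 0.01% Triton X-100. ADP detected by TR-FRET 665/615 ratio; IC50 from four-parameter fit of percent of control.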

[2] = tested on: T47D (PI3Kα-H1047R) cell line; test: HTRF phospho-AKT(S473) cell assay in T47D cells; type: cell-based, human; settings: Homo sapiens; T47D (PI3Kα-H1047R) cells, HTRF phospho-AKT(S473), 2 hours compound incubation
Method in brief: (§2)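 Cells plated overnight (T47D in RPMI/10% FBS/0.2 units/mL insulin; SKBR3 in McCoy's 5A/10% FBS), then given 12-point 1:3 compound series (top 5 μM T47D, 10 μM SKBR3; ≤0.5% DMSO) for 2 h at 37° C. SKBR3 stimulated with 70 ng/ml PDGF-BB for final 15 min. Lysate pAKT(S473) by HTRF; IC50 calculated.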

[3] = target: PI3Kα H1047R (Homo sapiens, UniProt P42336, H1047R); test: PI3Kα H1047R enzyme assay (Transcreener ADP2 TR-FRET Red Assay); type: biochemical; settings: purified recombinant full-length protein; 2 hours pre-incubation with compound
Chain of PI3Kα H1047R (P42336 whole entry H1047R): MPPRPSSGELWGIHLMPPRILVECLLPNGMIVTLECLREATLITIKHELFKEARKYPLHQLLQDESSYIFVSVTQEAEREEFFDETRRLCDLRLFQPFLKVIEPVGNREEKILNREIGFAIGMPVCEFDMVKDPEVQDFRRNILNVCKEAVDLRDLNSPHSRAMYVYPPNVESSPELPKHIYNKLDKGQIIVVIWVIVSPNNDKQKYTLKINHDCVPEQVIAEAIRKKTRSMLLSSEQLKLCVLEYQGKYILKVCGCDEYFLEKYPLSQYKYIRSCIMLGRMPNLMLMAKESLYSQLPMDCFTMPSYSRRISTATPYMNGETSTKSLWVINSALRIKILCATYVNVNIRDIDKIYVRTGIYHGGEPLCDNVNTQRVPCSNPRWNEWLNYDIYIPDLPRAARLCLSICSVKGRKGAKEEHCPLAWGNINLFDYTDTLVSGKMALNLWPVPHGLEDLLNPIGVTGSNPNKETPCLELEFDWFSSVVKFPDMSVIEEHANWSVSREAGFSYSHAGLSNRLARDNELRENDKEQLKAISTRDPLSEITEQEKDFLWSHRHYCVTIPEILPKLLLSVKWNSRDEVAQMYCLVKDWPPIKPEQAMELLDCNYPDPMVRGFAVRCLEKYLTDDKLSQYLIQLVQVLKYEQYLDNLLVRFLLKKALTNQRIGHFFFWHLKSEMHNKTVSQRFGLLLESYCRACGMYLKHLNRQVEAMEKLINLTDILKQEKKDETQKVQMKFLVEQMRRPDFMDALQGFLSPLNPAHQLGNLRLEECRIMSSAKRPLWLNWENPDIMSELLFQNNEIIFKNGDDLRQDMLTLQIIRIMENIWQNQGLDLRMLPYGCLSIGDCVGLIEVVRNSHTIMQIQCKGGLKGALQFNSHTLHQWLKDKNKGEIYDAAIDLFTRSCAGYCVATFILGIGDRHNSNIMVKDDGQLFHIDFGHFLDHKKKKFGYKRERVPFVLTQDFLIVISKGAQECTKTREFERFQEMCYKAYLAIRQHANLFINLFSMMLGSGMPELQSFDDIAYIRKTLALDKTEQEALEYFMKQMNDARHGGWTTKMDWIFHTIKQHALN
Chain of PI3Kα H1047R (P27986 2-724 partner): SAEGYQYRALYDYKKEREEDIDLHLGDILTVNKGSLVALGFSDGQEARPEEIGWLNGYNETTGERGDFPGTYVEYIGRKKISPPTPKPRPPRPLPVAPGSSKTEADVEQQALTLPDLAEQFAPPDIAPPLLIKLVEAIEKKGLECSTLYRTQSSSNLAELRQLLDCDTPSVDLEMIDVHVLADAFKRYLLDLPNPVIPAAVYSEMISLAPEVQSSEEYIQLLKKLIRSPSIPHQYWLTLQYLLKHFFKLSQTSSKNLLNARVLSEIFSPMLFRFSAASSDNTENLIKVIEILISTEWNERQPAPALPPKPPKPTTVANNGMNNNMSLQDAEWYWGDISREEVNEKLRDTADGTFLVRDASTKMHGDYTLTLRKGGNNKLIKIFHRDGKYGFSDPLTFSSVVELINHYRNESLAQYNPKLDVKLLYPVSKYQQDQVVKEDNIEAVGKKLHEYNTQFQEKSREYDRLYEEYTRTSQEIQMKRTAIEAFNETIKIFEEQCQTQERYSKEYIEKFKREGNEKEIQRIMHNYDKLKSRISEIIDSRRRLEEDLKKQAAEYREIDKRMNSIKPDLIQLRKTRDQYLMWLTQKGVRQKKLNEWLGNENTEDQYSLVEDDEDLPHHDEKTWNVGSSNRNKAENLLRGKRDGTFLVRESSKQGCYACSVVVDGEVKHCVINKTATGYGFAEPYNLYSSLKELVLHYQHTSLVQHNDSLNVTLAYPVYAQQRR
Method in brief: as §1

[4] = tested on: SKBR3 (PI3Kα-Wild Type) cell line; test: HTRF phospho-AKT(S473) cell assay in SKBR3 cells; type: cell-based, human; settings: Homo sapiens, SK-BR-3; SKBR3 (PI3Kα-Wild Type) cells, HTRF phospho-AKT(S473), 2 hours compound incubation, PDGF-BB stimulated
Method in brief: as §2

Chain of PI3Kα (P42336 whole entry): as the sequence (P42336 whole entry H1047R) above, with R1047H counted along it
Chain of PI3Kα (P27986 2-724 partner): as the sequence (P27986 2-724 partner) above

Structure (SMILES)	IC50 [1] [nM]	IC50 [2] [nM]	IC50 [3] [nM]	IC50 [4] [nM]
Cc1cc([C@@H](C)Nc2cccnc2C(=O)NS(C)(=O)=O)c2nc(N3Cc4ccc(F)cc4C3)n(C)c(=O)c2c1 [Compound 58, (R)-3-((1-(2-(5-fluoroisoindolin-2-yl)-3,6-dimethyl-4-oxo-3,4-dihydroquinazolin-8-yl)ethyl)amino)-N-(methylsulfonyl) picolinamide]	≥ 1000	250 to 500	≥ 1000	1000 to 5000
Cc1cc([C@@H](C)Nc2ccc(C)[nH]c2=O)c2nc(N3Cc4ccc(F)cc4C3)n(C)c(=O)c2c1 [Compound 97, (R)-2-(5-fluoroisoindolin-2-yl)-3,6-dimethyl-8-(1-((6-methyl-2-oxo-1,2-dihydropyridin-3-yl)amino)ethyl)quinazolin-4(3H)-one]	≥ 1000	500 to 1000	≥ 1000	≥ 5000
Cc1cc([C@@H](C)Nc2ccc(Cl)nc2S(=O)(=O)NC(=O)C(C)C)c2nc(N3Cc4ccc(F)cc4C3)n(C)c(=O)c2c1 [Compound 80, (R)-N-((6-chloro-3-((1-(2-(5-fluoroisoindolin-2-yl)-3,6-dimethyl-4-oxo-3,4-dihydroquinazolin-8-yl)ethyl)amino)pyridin-2-yl)sulfonyl)isobutyramide]	≥ 1000	500 to 1000	100 to 250	≥ 5000
Cc1cc([C@@H](C)Nc2ccc(Cl)nc2C(=O)NS(C)(=O)=O)c2nc(N3CCC(F)(F)C[C@@H]3C)n(C)c(=O)c2c1 (single isomer, unassigned) [Compound 42, 6-chloro-3-(((R)-1-(2-((R*)-4,4-difluoro-2-methylpiperidin-1-yl)-3,6-dimethyl-4-oxo-3,4-dihydroquinazolin-8-yl)ethyl)amino)-N-(methylsulfonyl) picolinamide]	≥ 1000	250 to 500	500 to 1000	1000 to 5000
C[C@@H](Nc1ccc(Cl)[nH]c1=O)c1cc(F)cc2c(=O)n(C)c(N3Cc4ccc(F)cc4C3)nc12 [Compound 99, (R)-8-(1-((6-chloro-2-oxo-1,2-dihydropyridin-3-yl)amino)ethyl)-6-fluoro-2-(5-fluoroisoindolin-2-yl)-3-methylquinazolin-4(3H)-one]	≥ 1000	500 to 1000	100 to 250	≥ 5000
Cc1cc([C@@H](C)Nc2ccc(Cl)nc2S(N)(=O)=O)c2nc(N3Cc4ccc(F)cc4C3)n(C)c(=O)c2c1 [Compound 76, (R)-6-chloro-3-((1-(2-(5-fluoroisoindolin-2-yl)-3,6-dimethyl-4-oxo-3,4-dihydroquinazolin-8-yl)ethyl)amino)pyridine-2-sulfonamide]	≥ 1000	250 to 500	< 100	1000 to 5000
Cc1cc([C@@H](C)Nc2ccc(Cl)nc2S(=O)(=O)NC(=O)C2CC2)c2nc(N3Cc4ccc(F)cc4C3)n(C)c(=O)c2c1 [Compound 79, (R)-N-((6-chloro-3-((1-(2-(5-fluoroisoindolin-2-yl)-3,6-dimethyl-4-oxo-3,4-dihydroquinazolin-8-yl)ethyl)amino)pyridin-2-yl)sulfonyl)cyclopropane-carboxamide]	≥ 1000	250 to 500	100 to 250	≥ 5000
Cc1cc([C@H](C)Nc2ccccc2S(N)(=O)=O)c2nc(N3Cc4ccc(F)cc4C3)n(C)c(=O)c2c1 (single isomer, unassigned) [Compound 105, 2-((1-(2-(5-fluoroisoindolin-2-yl)-3,6-dimethyl-4-oxo-3,4-dihydroquinazolin-8-yl)ethyl)amino) benzenesulfonamide]	≥ 1000	1000 to 5000	≥ 1000	≥ 5000

Further lines, results first:

IC50 [1] [nM]	IC50 [2] [nM]	IC50 [3] [nM]	IC50 [4] [nM]	Structure (SMILES)
≥ 1000	< 250	100 to 250	1000 to 5000	Cc1cc([C@@H](C)Nc2ccc(Cl)nc2C(=O)NS(C)(=O)=O)c2nc(N3Cc4cnn(CC(F)(F)F)c4C3)n(C)c(=O)c2c1 [Compound 53, (R)-6-chloro-3-((1-(3,6-dimethyl-4-oxo-2-(1-(2,2,2-trifluoroethyl)-4,6-dihydropyrrolo[3,4-c]pyrazol-5(1H)-yl)-3,4-dihydroquinazolin-8-yl)ethyl)amino)-N-(methylsulfonyl) picolinamide]
≥ 1000	1000 to 5000	≥ 1000	≥ 5000	Cc1cc([C@@H](C)Nc2ccccc2S(=O)(=O)NC(=O)C(F)F)c2nc(N3Cc4ccc(F)cc4C3)n(C)c(=O)c2c1 [Compound 75, (R)-2,2-difluoro-N-((2-((1-(2-(5-fluoroisoindolin-2-yl)-3,6-dimethyl-4-oxo-3,4-dihydroquinazolin-8-yl)ethyl)amino)phenyl)sulfonyl)acetamide]
≥ 1000	< 250	500 to 1000	1000 to 5000	Cc1cc([C@@H](C)Nc2ccc(Cl)nc2C(=O)NS(C)(=O)=O)c2nc(N3CCOCC3)n(C)c(=O)c2c1 [Compound 5, (R)-6-chloro-3-((1-(3,6-dimethyl-2-morpholino-4-oxo-3,4-dihydroquinazolin-8-yl)ethyl)amino)-N-(methylsulfonyl) picolinamide]
≥ 1000	1000 to 5000	≥ 1000	≥ 5000	Cc1cc([C@@H](C)Nc2ccc(Cl)nc2S(=O)(=O)NC(=O)N(C)C)c2nc(N3Cc4ccc(F)cc4C3)n(C)c(=O)c2c1 [Compound 71, (R)-6-chloro-N-(dimethylcarb-amoyl)-3-((1-(2-(5-fluoroisoindolin-2-yl)-3,6-dimethyl-4-oxo-3,4-dihydroquinazolin-8-yl)ethyl)amino)pyridine-2-sulfonamide]
≥ 1000	< 250	100 to 250	1000 to 5000	Cc1cc([C@@H](C)Nc2ccc(Cl)nc2C(=O)NS(C)(=O)=O)c2nc(N3Cc4cnn(C(C)C)c4C3)n(C)c(=O)c2c1 [Compound 49, (R)-6-chloro-3-((1-(2-(1-isopropyl-4,6-dihydropyrrolo[3,4-c]pyrazol-5(1H)-yl)-3,6-dimethyl-4-oxo-3,4-dihydroquinazolin-8-yl)ethyl)amino)-N-(methylsulfonyl) picolinamide]
500 to 1000	250 to 500	250 to 500	1000 to 5000	C[C@@H](Nc1ccc(Cl)nc1C(=O)NS(C)(=O)=O)c1cc(F)cc2c(=O)n(C)c(N3Cc4cccnc4C3)nc12 [Compound 32, (R)-6-chloro-3-((1-(2-(5,7-dihydro-6H-pyrrolo[3,4-b]pyridin-6-yl)-6-fluoro-3-methyl-4-oxo-3,4-dihydroquinazolin-8-yl)ethyl)amino)-N-(methylsulfonyl) picolinamide]
≥ 1000	< 250	250 to 500	500 to 1000	C[C@@H](Nc1ccc(Cl)nc1C(=O)NS(C)(=O)=O)c1cc(F)cc2c(=O)n(C)c(N3Cc4cn(C)nc4C3)nc12 [Compound 37, (R)-6-chloro-3-((1-(6-fluoro-3-methyl-2-(2-methyl-2,6-dihydropyrrolo[3,4-c]pyrazol-5(4H)-yl)-4-oxo-3,4-dihydroquinazolin-8-yl)ethyl)amino)-N-(methylsulfonyl) picolinamide]
≥ 1000	1000 to 5000	≥ 1000	≥ 5000	CC(=O)NS(=O)(=O)c1nc(Cl)ccc1N[C@H](C)c1cc(F)cc2c(=O)n(C)c(N3CCC(F)(F)CC3)nc12 [Compound 77, (R)-N-((6-chloro-3-((1-(2-(4,4-difluoropiperidin-1-yl)-6-fluoro-3-methyl-4-oxo-3,4-dihydroquinazolin-8-yl)ethyl)amino)pyridin-2-yl)sulfonyl)acetamide]
≥ 1000	250 to 500	250 to 500	1000 to 5000	Cc1cc([C@@H](C)Nc2ccc(Cl)nc2C(=O)NS(C)(=O)=O)c2nc(N3CCCC3)n(C)c(=O)c2c1 [Compound 16]
≥ 1000	250 to 500	250 to 500	1000 to 5000	Cc1cc([C@@H](C)Nc2ccc(Cl)nc2C(=O)NS(C)(=O)=O)c2nc(NCC3(C(F)(F)F)CC3)n(C)c(=O)c2c1 [Compound 24, (R)-6-chloro-3-((1-(3,6-dimethyl-4-oxo-2-(((1-(trifluoromethyl)cyclopropyl)methyl)amino)-3,4-dihydroquinazolin-8-yl)ethyl)amino)-N-(methylsulfonyl) picolinamide]
≥ 1000	250 to 500	250 to 500	1000 to 5000	Cc1cc([C@@H](C)Nc2ccc(Cl)nc2C(=O)NS(C)(=O)=O)c2nc(NCC3CC3)n(C)c(=O)c2c1 [Compound 8, (R)-6-chloro-3-((1-(2-((cyclopropylmethyl)amino)-3,6-dimethyl-4-oxo-3,4-dihydroquinazolin-8-yl)ethyl)amino)-N-(methylsulfonyl) picolinamide]
≥ 1000	1000 to 5000	≥ 1000	≥ 5000	Cc1cc([C@@H](C)Nc2ccc(Cl)nc2C(=O)NS(C)(=O)=O)c2nc(NCCC3CC3)n(C)c(=O)c2c1 [Compound 18, (R)-6-chloro-3-((1-(2-((2-cyclopropylethyl)amino)-3,6-dimethyl-4-oxo-3,4-dihydroquinazolin-8-yl)ethyl)amino)-N-(methylsulfonyl) picolinamide]
